The record followed here is ChEMBL document CHEMBL1158350, “Physicochemical and biological characterization of novel macrocycles derived from o-phthalaldehyde” (2009).

The subject of assay [1] is Fusarium. Briefly: Antifungal activity against Fusarium at 1000 ug/ml after 3 days by diffusion method. In kind it is functional, organism-based.
The subject of assay [2] is Bacillus subtilis. Put plainly: Antibacterial activity against Bacillus subtilis MTCC 619 at 1000 ug/ml after 24 hrs by agar diffusion method. It is filed as functional. The conditions noted are these: MTCC 619, 24 h, read-out: IZ. A general note: In agar diffusion tests the substance spreads into inoculated agar from a disc or well.
In assay [3] the test system is Staphylococcus aureus. Put plainly: Antibacterial activity against Staphylococcus aureus MTCC 96 at 1000 ug/ml after 24 hrs by agar diffusion method. It is filed as functional. The conditions noted are these: MTCC 96, 24 h, read-out: IZ.
Assay [4] has as its system Klebsiella pneumoniae. Briefly: Antibacterial activity against Klebsiella pneumoniae MTCC 109 at 1000 ug/ml after 24 hrs by agar diffusion method. It is filed as functional. The conditions noted are these: MTCC 109, 24 h, read-out: IZ.
Assay [5] has as its system Aspergillus flavus. Briefly: Antifungal activity against Aspergillus flavus at 1000 ug/ml after 3 days by diffusion method. In kind it is functional, organism-based.
Assay [6] has as its system Klebsiella pneumoniae. Briefly: Antibacterial activity against Klebsiella pneumoniae MTCC 109 after 24 hrs by liquid dilution method. It is filed as functional. The conditions noted are these: MTCC 109, 24 h.
The test system of assay [7] is Escherichia coli. Put plainly: Antibacterial activity against Escherichia coli MTCC 722 at 1000 ug/ml after 24 hrs by agar diffusion method. It is filed as functional. The conditions noted are these: MTCC 722, 24 h, read-out: IZ.
In assay [8] the test system is Escherichia coli. Put plainly: Antibacterial activity against Escherichia coli MTCC 722 after 24 hrs by liquid dilution method. In kind it is functional. The conditions noted are these: MTCC 722, 24 h.
Assay [9] relates to Staphylococcus aureus. Briefly: Antibacterial activity against Staphylococcus aureus MTCC 96 after 24 hrs by liquid dilution method. It is filed as functional. The conditions noted are these: MTCC 96, 24 h.
Assay [10] relates to Bacillus subtilis. Put plainly: Antibacterial activity against Bacillus subtilis MTCC 619 after 24 hrs by liquid dilution method. In kind it is functional. The conditions noted are these: MTCC 619, 24 h.
The subject of assay [11] is Fusarium. Put plainly: Antifungal activity against Fusarium at 500 ug/ml after 3 days by diffusion method. It is filed as functional, organism-based.
Assay [12] has as its system Aspergillus flavus. Put plainly: Antifungal activity against Aspergillus flavus at 500 ug/ml after 3 days by diffusion method. It is filed as functional, organism-based.

Values after ≈ are worked out from the molar mass of the structure shown. Active and inactive are the calls of the source. The rule behind the calls is not given here.

Turning to `C1=N/c2ncccc2OCCOc2cccnc2/N=C/c2ccccc2/1`, the result in the assay on Fusarium [1], in the assay on Aspergillus flavus [5], in the assay on Fusarium [11] and in the assay with Aspergillus flavus [12] was Active. The zone of inhibition at 1000 µg/mL in the assay on Bacillus subtilis [2] was 38 mm; in the assay with Staphylococcus aureus [3], 35 mm; with Klebsiella pneumoniae [4], 32 mm; with Escherichia coli [7] it was 40 mm. Besides, the MIC – broadly, the lowest concentration found to suppress growth – was 2 mg/L (≈ 5.81 µM) against Klebsiella pneumoniae [6], 1 mg/L (≈ 2.9 µM) in the assay on Escherichia coli [8], 5 mg/L (≈ 14.5 µM) against Staphylococcus aureus [9] and 10 mg/L (≈ 29 µM) with Bacillus subtilis [10].
Turning to `Cc1ccc2c(c1)/N=C/c1ccccc1/C=N/c1cc(C)ccc1OCCCO2`, the outcome in the assay on Fusarium [1], in the assay with Aspergillus flavus [5], in the assay with Fusarium [11] and in the assay with Aspergillus flavus [12] was Active. The zone of inhibition at 1000 µg/mL is 13 mm with Bacillus subtilis [2], 14 mm in the assay on Staphylococcus aureus [3], 12 mm in the assay on Klebsiella pneumoniae [4] and 11 mm in the assay on Escherichia coli [7].
`CC1(C)S[C@@H]2[C@H](NC(=O)[C@H](N)c3ccccc3)C(=O)N2[C@H]1C(=O)O` [AMPICILLIN]: the zone of inhibition at 1000 µg/mL with Bacillus subtilis [2] is 11 mm; in the assay with Staphylococcus aureus [3] it was 13 mm; in the assay with Klebsiella pneumoniae [4], 7 mm; in the assay on Escherichia coli [7], 8 mm.
Consider `C1=N/c2ccccc2OCCCOc2ccccc2/N=C/c2ccccc2/1`, for which the result in the assay with Fusarium [1], in the assay with Aspergillus flavus [5], in the assay with Fusarium [11] and with Aspergillus flavus [12] was Active. Further, the zone of inhibition at 1000 µg/mL in the assay with Bacillus subtilis [2] stood at 10 mm; in the assay with Staphylococcus aureus [3], 11 mm; in the assay with Klebsiella pneumoniae [4] it was 12 mm; in the assay on Escherichia coli [7], 11 mm.
`C1=N/c2cc3ccccc3cc2OCCCOc2cc3ccccc3cc2/N=C/c2ccccc2/1`: the outcome with Fusarium [1], with Aspergillus flavus [5], in the assay on Fusarium [11] and with Aspergillus flavus [12] was Active. Besides, the zone of inhibition at 1000 µg/mL in the assay on Bacillus subtilis [2] turned out to be 13 mm; in the assay with Staphylococcus aureus [3], 14 mm; in the assay on Klebsiella pneumoniae [4], 11 mm; in the assay on Escherichia coli [7], 13 mm.
In the case of `C1=N/c2ccccc2OCCOc2ccccc2/N=C/c2ccccc2/1`, the result with Fusarium [1], with Aspergillus flavus [5], with Fusarium [11] and in the assay on Aspergillus flavus [12] was Active. Besides, the zone of inhibition at 1000 µg/mL with Bacillus subtilis [2] was 11 mm; in the assay with Staphylococcus aureus [3], 12 mm; with Klebsiella pneumoniae [4], 12 mm; with Escherichia coli [7], 10 mm.
With `Cc1ccc2c(c1)/N=C/c1ccccc1/C=N/c1cc(C)ccc1OCCO2`, the result in the assay with Fusarium [1], with Aspergillus flavus [5], in the assay on Fusarium [11] and in the assay with Aspergillus flavus [12] was Active. Moreover, the zone of inhibition at 1000 µg/mL with Bacillus subtilis [2] came to 14 mm; with Staphylococcus aureus [3] it was 12 mm; with Klebsiella pneumoniae [4], 10 mm; with Escherichia coli [7] it was 13 mm.
In the case of `C1=N/c2ncccc2OCCCOc2cccnc2/N=C/c2ccccc2/1`, the result with Fusarium [1], with Aspergillus flavus [5], in the assay on Fusarium [11] and in the assay on Aspergillus flavus [12] was Active. The zone of inhibition at 1000 µg/mL in the assay with Bacillus subtilis [2] was found to be 35 mm; in the assay on Staphylococcus aureus [3], 30 mm; with Klebsiella pneumoniae [4] it was 29 mm; in the assay with Escherichia coli [7], 32 mm. Moreover, the MIC against Klebsiella pneumoniae [6] stood at 2 mg/L (≈ 5.58 µM); in the assay on Escherichia coli [8], 2 mg/L (≈ 5.58 µM); in the assay with Staphylococcus aureus [9] it was 2 mg/L (≈ 5.58 µM); against Bacillus subtilis [10] it was 10 mg/L (≈ 27.9 µM).
Take `CO[C@H]1/C=C/O[C@@]2(C)Oc3c(C)c(O)c4c(O)c(c(/C=N/N5CCN(C)CC5)c(O)c4c3C2=O)NC(=O)/C(C)=C\C=C\[C@H](C)[C@H](O)[C@@H](C)[C@@H](O)[C@@H](C)[C@H](OC(C)=O)[C@@H]1C` [RIFAMPIN]: the zone of inhibition at 1000 µg/mL was 51 mm in the assay on Bacillus subtilis [2], 49 mm in the assay on Staphylococcus aureus [3], 45 mm with Klebsiella pneumoniae [4] and 48 mm in the assay on Escherichia coli [7]. In addition, the MIC with Klebsiella pneumoniae [6] was found to be 0.25 mg/L (≈ 0.304 µM); in the assay with Escherichia coli [8] it was 0.25 mg/L (≈ 0.304 µM); against Staphylococcus aureus [9] it was 0.25 mg/L (≈ 0.304 µM); in the assay on Bacillus subtilis [10] it was 10 mg/L (≈ 12.2 µM).
On to `Cc1cccc2c1/N=C/c1ccccc1/C=N/c1c(C)cccc1OCCO2`, for which the result in the assay with Fusarium [1], in the assay on Aspergillus flavus [5], with Fusarium [11] and with Aspergillus flavus [12] was Active. Besides, the zone of inhibition at 1000 µg/mL with Bacillus subtilis [2] is 12 mm; in the assay on Staphylococcus aureus [3] it was 14 mm; with Klebsiella pneumoniae [4] it was 12 mm; in the assay with Escherichia coli [7], 11 mm.
In the case of `C1=N/c2cc3ccccc3cc2OCCOc2cc3ccccc3cc2/N=C/c2ccccc2/1`, the outcome in the assay with Fusarium [1], in the assay on Aspergillus flavus [5], in the assay with Fusarium [11] and in the assay on Aspergillus flavus [12] was Active. Moreover, the zone of inhibition at 1000 µg/mL came to 15 mm in the assay with Bacillus subtilis [2], 15 mm in the assay on Staphylococcus aureus [3], 14 mm with Klebsiella pneumoniae [4] and 14 mm in the assay with Escherichia coli [7].
`CN[C@@H]1[C@H](O[C@H]2[C@H](O[C@H]3[C@H](O)[C@@H](O)[C@H](N=C(N)N)[C@@H](O)[C@@H]3N=C(N)N)O[C@@H](C)[C@]2(O)C=O)O[C@@H](CO)[C@H](O)[C@H]1O` [STREPTOMYCIN]: the zone of inhibition at 1000 µg/mL with Bacillus subtilis [2] was determined as 10 mm; with Staphylococcus aureus [3] it was 12 mm; in the assay with Klebsiella pneumoniae [4], 6 mm; with Escherichia coli [7] it was 6 mm. Besides, the MIC against Bacillus subtilis [10] was found to be 2 mg/L (≈ 3.44 µM).
On to `Cc1cccc2c1/N=C/c1ccccc1/C=N/c1c(C)cccc1OCCCO2`, for which the outcome in the assay with Fusarium [1], with Aspergillus flavus [5], in the assay on Fusarium [11] and with Aspergillus flavus [12] was Active. Besides, the zone of inhibition at 1000 µg/mL is 13 mm in the assay with Bacillus subtilis [2], 15 mm in the assay with Staphylococcus aureus [3], 11 mm with Klebsiella pneumoniae [4] and 12 mm in the assay with Escherichia coli [7].
